In assay [1] the target is T1, CRMP4b-RhoA binding (Homo sapiens, UniProt P61586).
T1 construct: expressed in transfected cells; host or cells: HEK293T
Briefly: CRMP-RhoA co-immunoprecipitation, full length CRMP4b binding to RhoA in co-transfected HEK293T cells. In kind it is cell-based, rat. Conditions: co-transfection with myc-RhoAWT and CRMP4-V5, myc-immunoprecipitation, FIG. 7c. As for the experimental part: (§1) HEK 293T cells were grown to sub-confluence and transfected with Lipofectamine 2000 according to manufacturer instructions (Invitrogen, Burlington, Ontario), washed twice with ice-cold PBS and lysed in lysis buffer A (50 mM Tris, pH 7.4, 150 mM NaCl, 1 mM EDTA, 1% (v/v) Triton X-100, 1 mM Na3VO4, 1 mM NaF, 1 mM PMSF and CØmplete protease inhibitors (Roche Diagnostics, Laval, PQ)). Lysates were pre-cleared with protein A/G-agarose (Santa Cruz Biotechnology, Santa Cruz, Calif.) and subjected to immunoprecipitation with myc-agarose or V5-agarose (Sigma Chemical Co., Oakville, Ontario). After washing 3 times with ice-cold PBS, bound protein was eluted with SDS and immunoblotted with anti-Myc (9E10, 1:1000; Sigma Chemical Co., Oakville, Ontario) or anti-V5 (1:5000; Invitrogen, Burlington, Ontario). For time course experiments, PC12 cells were transfected for 24 hours using Lipofectamine 2000 (Invitrogen, Burlington, Ontario) and differentiated with 50 ng/ml nerve growth factor (NGF; Upstate Biotechnology, Waltham, Mass.) for 24 hours. Cells were treated with Nogo-P4 peptide for the indicated period of time at 37° C. Cells were then lysed and proteins were immunoprecipitated as described above.

Assay [2] has as its target T2, binding between FLAG-RhoA63L and myc-ROCK (Homo sapiens, UniProt P61586, Q63L).
T2 construct: expressed in transfected cells; host or cells: HEK293T
The assay is described as follows: Co-immunoprecipitation of FLAG-RhoA63L and myc-ROCK in co-transfected HEK293T cells. The assay is classed as cell-based. Conditions: FIG. 7d. As for the experimental part:
as §1

The target in assay [3] is T3, CRMP4a-RhoA binding (Homo sapiens, UniProt P61586).
T3 construct: expressed in transfected cells; host or cells: HEK293T
The assay is described as follows: CRMP-RhoA co-immunoprecipitation, CRMP4a binding to RhoA in co-transfected HEK293T cells. In kind it is cell-based, rat. As to conditions: co-transfection with myc-RhoAWT and CRMP4-V5, myc-immunoprecipitation, FIG. 7c. As for the experimental part: as §1

The test system of assay [4] is dissociated E13 chick DRG neurons. Briefly: Neurite outgrowth assay on myelin substrate, HSV-infected neurons. The assay is classed as cell-based. Conditions: introduced via recombinant HSV, compared to GFP- or full length CRMP4b-infected neurons, FIG. 8b, d. As for the experimental part:
(§2) For neurite outgrowth assays, myelin was dried down on poly-L-lysine-coated substrates. Substrates were washed and coated with 10 μg/ml laminin for 1 hr. For outgrowth on aggrecan, poly-L-lysine-coated substrates were coated with aggrecan and 10 μg/ml laminin for 2 hr at 37° C. Dissociated E13 chick DRG neurons were cultured in DRG media (F-12 medium. 10% FBS, 1% penicillin/streptomycin, 1% L-glutamine, 50 ng/ml NGF) in the presence of virus for 24 hours, fixed with 4% paraformaldehyde/20% sucrose in PBS and double stained with anti-βIII tubulin (Covance, Berkeley, Calif.) and anti-V5 antibody (Sigma Chemical Co. Oakville, Ontario). Neurite outgrowth lengths per cell were assessed using Image J, a public domain JAVA image processing program as previously described (Fournier et al., 2003).

The test system is the same in assay [5]. The assay is described as follows: Neurite outgrowth assay on aggrecan substrate, HSV-infected neurons. As to conditions: introduced via recombinant HSV, FIG. 8e. The assay is classed as cell-based. As for the experimental part:
as §2

Assay [6] relates to E8 chick DRG neurons. Briefly: Sema3A-dependent growth cone collapse assay. The assay is classed as cell-based. Conditions: HSV-infected, stimulated 20 min with AP-Sema3A ligand, FIG. 8f. As for the experimental part:
[…] Sema3A-AP or AP conditioned media was prepared as described previously (Takahashi et al., 1998). Explants were stimulated with Sema3A-AP- or AP-conditioned media at indicated concentrations for 20 min and fixed with 4% paraformaldehyde, 20% sucrose and 0.1M NaPO4. Explants were stained with rhodamine phalloidin and assessed for growth cone collapse as described (Luo et al., 1993).

The test system of assay [7] is dissociated E13 chick DRG neurons. Briefly: Neurite outgrowth assay on laminin (control) substrate, HSV-infected neurons. The assay is classed as cell-based. As to conditions: introduced via recombinant HSV, normalized to GFP-infected neurons, FIG. 8b, c. As for the experimental part:
as §2

In assay [8] the test system is E13 chick DRG neurons. Briefly: Filopodia and neurite branch analysis of HSV-infected DRG growth cones. In kind it is cell-based. As to conditions: overexpression by HSV infection. As for the experimental part: E7-13 chick DRG explants were cultured in DRG media on poly-L-lysine- and laminin-coated substrates for 18 hours. For viral infections, recombinant viral preparations were added to the media 1 hour after plating. After 18 hours, cultures were treated with myelin and fixed with 4% paraformaldehyde/20% sucrose/PBS, permeabilized in 0.2% triton X-100 and double stained with polyclonal anti-RhoA antibody (Santa Cruz Biotechnology, Santa Cruz, Calif.) and anti-CRMP4b or V5 antibody. For filopodia and branch analysis, GFP and CRMP4bV5-infected growth cones were double stained with rhodamine-phalloidin (Molecular Probes, Eugene, Oreg.) and anti-V5 antibody. Filopodial length per growth cone was assessed using Image J, by measuring total filopodial length per growth cone averaged by the total number of filopodia per growth cone. Neurite branches were quantified by counting total branch buds per neurite.

T2 sequence (P61586 1-190 Q63L limits assumed): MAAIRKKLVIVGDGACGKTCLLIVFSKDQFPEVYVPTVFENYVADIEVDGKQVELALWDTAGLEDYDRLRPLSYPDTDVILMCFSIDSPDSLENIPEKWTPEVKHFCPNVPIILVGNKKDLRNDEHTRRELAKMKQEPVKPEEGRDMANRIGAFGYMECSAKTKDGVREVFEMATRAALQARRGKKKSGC
T3 sequence (P61586 1-190 limits assumed): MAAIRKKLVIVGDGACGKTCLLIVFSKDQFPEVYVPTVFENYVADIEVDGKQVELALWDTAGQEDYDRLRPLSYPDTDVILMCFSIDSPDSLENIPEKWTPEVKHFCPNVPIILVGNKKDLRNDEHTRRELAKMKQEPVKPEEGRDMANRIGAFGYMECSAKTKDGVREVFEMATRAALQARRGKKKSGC
T1 sequence (P61586 1-190 limits assumed): as above

As for “C4RIP-V5: CRMP4b-RhoA Inhibitory Peptide: first 126 residues of the unique amino terminal domain of CRMP4b (SEQ ID NO: 2), fused to a V5-epitope tag”, the “effect on RhoA binding to full length CRMP4b” value in assay [1] is recorded as “significantly diminishes RhoA binding to full length CRMP4b”. The “effect on binding between FLAG-RhoA63L and myc-ROCK” value in assay [2] was “does not diminish binding between FLAG-RhoA63L and myc-ROCK”. Also, the “effect on RhoA binding to CRMP4a” value in assay [3] is listed as “without affecting binding to CRMP4a”. Also, the “neurite outgrowth on myelin substrate (myelin-dependent outgrowth inhibition)” value in assay [4] was “significantly attenuates myelin-dependent outgrowth inhibition”. The “neurite outgrowth on aggrecan” value in assay [5] is “promotes neurite outgrowth on aggrecan”. Moreover, the “Sema3A-dependent growth cone collapse” value in assay [6] is “no effect on Sema3A-dependent growth cone collapse”. Further, the “basal neurite outgrowth on permissive control (laminin) substrate” value in assay [7] was “does not promote basal DRG outgrowth on permissive control substrates”.
As for “CRMP4b-V5: full length rat CRMP4b (SEQ ID NO: 1) with V5-His tag, overexpressed via HSV or plasmid”, the “effect on binding between FLAG-RhoA63L and myc-ROCK” value in assay [2] was “does not affect the binding between FLAG-RhoA63L and myc-ROCK”. In assay [7], the “basal neurite outgrowth on permissive control (laminin) substrate” value is recorded as “not sufficient to mimic myelin inhibitory responses”. The same substance yielded a branches per neurite in assay [8] (average (GFP-infected: 2), FIG. 5g) of 8 branches per neurite. The “filopodia length increase versus GFP-infected growth cones” value in assay [8] (average, FIG. 5e, f, g) is given as 70%.
